Like-named read-outs stand apart in the source and are kept apart here.
Key:
Type in all cases: biochemical
Human FXIa = Human FXIa (Homo sapiens (Human), UniProt P03951); experiment: Determination of the % inhibition for FXIa; settings: read-out: % Inhibition @ 40 μM (human FXIa)
Experimental: Determination of the % Inhibition for FXIa
Human FXIa (Enzyme Research Laboratories) was incubated at 25° C. with the fluorogenic substrate Z-Gly-Pro-Arg-AFC and 40 μM of the test compound. Residual enzyme activity (initial rate of reaction) was determined by measuring the change in […].

Human KLK1 = Human KLK1 (Homo sapiens (Human), UniProt P06870); experiment: Determination of the IC50 for KLK1; settings: human KLK1, 25° C., substrate H-DVal-Leu-Arg-AFC
Human KLK1, sequence (P06870 25-262): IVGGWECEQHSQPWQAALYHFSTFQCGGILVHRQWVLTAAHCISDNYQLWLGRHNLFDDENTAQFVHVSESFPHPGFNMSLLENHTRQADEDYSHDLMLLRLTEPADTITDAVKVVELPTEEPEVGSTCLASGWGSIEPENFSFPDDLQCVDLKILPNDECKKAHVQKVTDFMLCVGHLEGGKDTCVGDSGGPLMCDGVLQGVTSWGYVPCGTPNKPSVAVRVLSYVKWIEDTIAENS
Experimental: Determination of the IC50 for KLK1
(§1) Human KLK1 (Callbiochem) was incubated at 25° C. with the fluorogenic substrate H-DVal-Leu-Arg-AFC and various concentrations of the test compound. Residual enzyme activity (initial rate of reaction) was determined by measuring the change in […] at 410 nm and the IC50 value for the test compound was determined.

Human plasma kallikrein = Human plasma kallikrein (Homo sapiens (Human), UniProt P03952); experiment: Determination of the IC50 for plasma kallikrein; settings: read-out: IC50 (human PKal)
Human plasma kallikrein, sequence (P03952 391-638): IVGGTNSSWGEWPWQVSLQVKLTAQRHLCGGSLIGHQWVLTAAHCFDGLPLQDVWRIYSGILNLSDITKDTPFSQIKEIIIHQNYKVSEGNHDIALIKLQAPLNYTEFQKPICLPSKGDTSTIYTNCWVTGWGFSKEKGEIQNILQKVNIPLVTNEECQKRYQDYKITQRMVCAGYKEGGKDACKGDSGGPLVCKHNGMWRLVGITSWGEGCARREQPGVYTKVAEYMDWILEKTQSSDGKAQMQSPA
Human plasma kallikrein, sequence (P03952 20-390 partner): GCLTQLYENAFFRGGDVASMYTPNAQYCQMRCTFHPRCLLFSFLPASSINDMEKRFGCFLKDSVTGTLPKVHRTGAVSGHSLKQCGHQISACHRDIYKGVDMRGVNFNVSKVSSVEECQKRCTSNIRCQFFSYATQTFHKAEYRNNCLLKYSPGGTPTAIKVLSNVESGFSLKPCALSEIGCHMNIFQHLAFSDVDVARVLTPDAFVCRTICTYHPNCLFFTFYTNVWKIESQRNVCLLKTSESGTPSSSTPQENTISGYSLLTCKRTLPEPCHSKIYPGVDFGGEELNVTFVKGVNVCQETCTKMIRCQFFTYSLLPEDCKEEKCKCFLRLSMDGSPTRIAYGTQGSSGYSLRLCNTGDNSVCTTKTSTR
Experimental: Determination of the IC50 for Plasma Kallikrein
as §1, with “plasma kallikrein (Protogen)” for “KLK1 (Callbiochem)”, “H-DPro-Phe-Arg-AFC” for “H-DVal-Leu-Arg-AFC”

[1] = 40 μM of the test compound, human FXIa, 25° C.

Human FXIa, sequence (P03951 388-625 limits assumed): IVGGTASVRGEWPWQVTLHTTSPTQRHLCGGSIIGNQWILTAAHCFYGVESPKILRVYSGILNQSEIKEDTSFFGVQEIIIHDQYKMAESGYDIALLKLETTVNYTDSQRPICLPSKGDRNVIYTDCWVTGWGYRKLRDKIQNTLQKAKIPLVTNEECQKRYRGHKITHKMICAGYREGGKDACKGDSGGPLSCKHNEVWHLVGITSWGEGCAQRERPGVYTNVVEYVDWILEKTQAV
Human FXIa, sequence (P03951 19-387 partner limits assumed): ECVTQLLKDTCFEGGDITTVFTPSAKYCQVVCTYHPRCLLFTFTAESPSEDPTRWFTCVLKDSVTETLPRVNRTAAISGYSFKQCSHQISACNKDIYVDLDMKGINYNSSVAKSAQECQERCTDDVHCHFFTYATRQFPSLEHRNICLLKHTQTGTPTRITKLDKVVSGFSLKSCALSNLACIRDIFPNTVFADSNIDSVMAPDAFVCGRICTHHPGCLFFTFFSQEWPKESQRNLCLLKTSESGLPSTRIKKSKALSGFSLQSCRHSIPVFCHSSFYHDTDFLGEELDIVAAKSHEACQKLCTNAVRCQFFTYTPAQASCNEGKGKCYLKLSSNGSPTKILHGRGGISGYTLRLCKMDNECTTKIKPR

| Compound | inhibition at 40 µM (Human FXIa; [1]) | IC50 (Human KLK1) | IC50 (Human plasma kallikrein) | inhibition at 40 µM (Human FXIa) |
| --- | --- | --- | --- | --- |
| CN(C(=O)CNC(=O)c1cn(Cc2ccc(Cn3ccccc3=O)cc2)nc1N)c1cccc(Cl)c1 [Example 40, 2-{[3-amino-1-({4-[(2-oxopyridin-1-yl)methyl]phenyl}methyl)pyrazol-4-yl]formamido}-N-(3-chlorophenyl)-N-methylacetamide] | 0% | > 40 µM | 0.0126 µM | – |
| COCc1nn(Cc2ccc(Cn3ccccc3=O)cc2)cc1C(=O)NCCOc1ccccc1Cl [Example 6, N-[2-(2-chlorophenoxy)ethyl]-3-(methoxymethyl)-1-({4-[(2-oxopyridin-1-yl)methyl]phenyl}methyl)pyrazole-4-carboxamide] | 0% | > 10 µM | 1.89 µM | – |
| Nc1nn(Cc2ccc(Cn3ccccc3=O)cc2)cc1C(=O)NCCCn1cc(Cl)cn1 [Example 21, 3-amino-N-[3-(4-chloropyrazol-1-yl)propyl]-1-({4-[(2-oxopyridin-1-yl)methyl]phenyl}methyl)pyrazole-4-carboxamide] | 56% | > 40 µM | 2.79 µM | – |
| Nc1nn(Cc2ccc(CN3CCOCC3=O)cc2)cc1C(=O)NCCOc1cccc(Cl)c1 [Example 76, 3-amino-N-[2-(3-chlorophenoxy)ethyl]-1-({4-[(3-oxomorpholin-4-yl)methyl]phenyl}methyl)pyrazole-4-carboxamide] | 0% | > 40 µM | 0.227 µM | – |
| Nc1nn(Cc2ccc(Br)cc2)cc1C(=O)NCCOc1cccc(Cl)c1 [Example 55, 3-amino-1-[(4-bromophenyl)methyl]-N-[2-(3-chlorophenoxy)ethyl]pyrazole-4-carboxamide] | – | > 40 µM | 6.41 µM | 80% |
| CNc1nn(Cc2ccc(Cn3ccccc3=O)cc2)cc1C(=O)NCCOc1cccc(Cl)c1 [Example 37, N-[2-(3-Chlorophenoxy)ethyl]-3-(methylamino)-1-({4-[(2-oxopyridin-1-yl)methyl]phenyl}methyl)pyrazole-4-carboxamide] | 8% | > 40 µM | 0.0185 µM | – |
| O=C(NCCOc1cccc(Cl)c1)c1cn(Cc2ccc(Cn3ccccc3=O)cc2)nc1C1CC1 [Example 5, N-[2-(3-chlorophenoxy)ethyl]-3-cyclopropyl-1-({4-[(2-oxopyridin-1-yl)methyl]phenyl}methyl)pyrazole-4-carboxamide] | 0% | > 10 µM | 0.0684 µM | – |
| Cc1cc(Cl)cc(OCCNC(=O)c2cn(Cc3ccc(Cn4ccccc4=O)cc3)nc2N)c1 [Example 33, 3-amino-N-[2-(3-chloro-5-methylphenoxy)ethyl]-1-({4-[(2-oxopyridin-1-yl)methyl]phenyl}methyl)pyrazole-4-carboxamide] | 29% | > 40 µM | 0.114 µM | – |
| Cc1ccc2cc(Cn3cc(C(=O)NCCOc4cccc(Cl)c4)c(N)n3)ccc2n1 [Example 54, 3-amino-N-[2-(3-chlorophenoxy)ethyl]-1-[(2-methylquinolin-6-yl)methyl]pyrazole-4-carboxamide] | 67% | > 40 µM | 0.245 µM | – |
| O=C(NCCOc1cccc(Cl)c1)c1cnn(Cc2ccc(Cn3ccccc3=O)cc2)c1 [Example 36, N-[2-(3-chlorophenoxy)ethyl]-1-({4-[(2-oxopyridin-1-yl)methyl]phenyl}methyl)pyrazole-4-carboxamide] | 0% | > 40 µM | 0.0061 µM | – |
| Nc1nn(Cc2ccc(Cn3ccccc3=O)cc2)cc1C(=O)NCCOc1ccc(Cl)c(Cl)c1 [Example 30, 3-amino-N-[2-(3,4-dichlorophenoxy}ethyl]-1-({4-[(2-oxopyridin-1-yl)methyl]phenyl}methyl)pyrazole-4-carboxamide] | 0% | > 40 µM | 0.0968 µM | – |
| Nc1nn(Cc2ccc(Oc3ccccc3)cc2)cc1C(=O)NCCOc1cccc(Cl)c1 [Example 71, 3-amino-N-[2-(3-chlorophenoxy)ethyl]-1-[(4-phenoxyphenyl)methyl]pyrazole-4-carboxamide] | 0% | > 40 µM | 2.07 µM | – |
| Nc1nn(Cc2ccc(CN3CCCCC3=O)cc2)cc1C(=O)NCCOc1cccc(Cl)c1 [Example 77, 3-amino-N-[2-(3-chlorophenoxy)ethyl]-1-({4-[(2-oxopiperidin-1-yl)methyl]phenyl}methyl)pyrazole-4-carboxamide] | 0% | > 40 µM | 0.112 µM | – |

Continued, in another order:

| inhibition at 40 µM (Human FXIa; [1]) | IC50 (Human KLK1) | IC50 (Human plasma kallikrein) | Compound | inhibition at 40 µM (Human FXIa) |
| --- | --- | --- | --- | --- |
| 0% | > 40 µM | 3.78 µM | Nc1nn(Cc2ccnc(-c3cccnc3)c2)cc1C(=O)NCCOc1cccc(Cl)c1 [Example 91, 3-amino-N-[2-(3-chlorophenoxy)ethyl]-1-{[2-(pyridin-3-yl)pyridin-4-yl]methyl}pyrazole-4-carboxamide] | – |
| 3% | > 40 µM | 0.316 µM | C[C@H](COc1cccc(Cl)c1)NC(=O)c1cn(Cc2ccc(Cn3ccccc3=O)cc2)nc1N [Example 113, 3-amino-N-[(2R)-1-(3-chlorophenoxy)propan-2-yl]-1-({4-[(2-oxopyridin-1-yl)methyl]phenyl}methyl)pyrazole-4-carboxamide] | – |
| 2% | > 10 µM | > 10 µM | Nc1nn(Cc2ccc3[nH]ncc3c2)cc1C(=O)NCCOc1cccc(Cl)c1 [Example 92, 3-amino-N-[2-(3-chlorophenoxy)ethyl]-1-(1H-indazol-5-ylmethyl)pyrazole-4-carboxamide] | – |
| 29% | > 40 µM | 7.46 µM | Nc1nn(Cc2ccc(Cn3ccccc3=O)cc2)cc1C(=O)N[C@H]1CCN(c2cc(Cl)ccn2)C1 [Example 112, 3-amino-N-[(3S)-1-(4-chloropyridin-2-yl)pyrrolidin-3-yl]-1-({4-[(2-oxopyridin-1-yl)methyl]phenyl}methyl)pyrazole-4-carboxamide] | – |
| 0% | > 40 µM | 0.298 µM | CN(C)C(=O)N(C)Cc1ccc(Cn2cc(C(=O)NCCOc3cccc(Cl)c3)c(N)n2)cc1 [Example 83, 3-amino-N-[2-(3-chlorophenoxy)ethyl]-1-[(4-{[(dimethylcarbamoyl)(methyl)amino]methyl}phenyl)methyl]pyrazole-4-carboxamide] | – |
| 2% | > 40 µM | 0.0048 µM | Nc1nn(Cc2ccc(Cn3ccccc3=O)cc2)cc1C(=O)N[C@H]1CCN(c2cccc(Cl)c2)C1=O [Example 107, 3-amino-N-[(3S)-1-(3-chlorophenyl)-2-oxopyrrolidin-3-yl]-1-({4-[(2-oxopyridin-1-yl)methyl]phenyl}methyl)pyrazole-4-carboxamide] | – |
| 0% | > 40 µM | 0.0302 µM | Nc1nn(Cc2ccc(Cn3cccnc3=O)cc2)cc1C(=O)NCCOc1cccc(Cl)c1 [Example 86, 3-amino-N-[2-(3-chlorophenoxy)ethyl]-1-({4-[(2-oxopyrimidin-1-yl)methyl]phenyl}methyl)pyrazole-4-carboxamide] | – |
| 0% | > 40 µM | 0.78 µM | CN(Cc1ccc(Cn2cc(C(=O)NCCOc3cccc(Cl)c3)c(N)n2)cc1)c1ccccn1 [Example 87, 3-amino-N-[2-(3-chlorophenoxy)ethyl]-1-[(4-{[methyl(pyridin-2-yl)amino]methyl}phenyl)methyl]pyrazole-4-carboxamide] | – |

Reference: patent US10781181B2, “N-((het) arylmethyl)-heteroaryl-carboxamides compounds as plasma kallikrein inhibitors” (Kalvista Pharmaceuticals Limited, priority 2014, dated 2020)
